The values that follow come from patent US12227501B2, “3-amino-2-[2-(acylamino)pyridin-4-yl]-1,5,6,7-tetrahydro-4h-pyrrolo[3,2-c]pyridin-4-one as CSNK1 inhibitors” (Bayer Aktiengesellschaft, priority 2019, dated 2025).

A value given as a limit tells only on which side of the number the result lay.

Holding throughout (assay type): biochemical
The target in assay [1] is T1, human CSNK1A1 (Homo sapiens (Human), UniProt P48729). Briefly: CSNK1A1 High ATP Assay (ADP-Glo, 1 mM ATP). The settings on record: read-out: CSNK1A1 high ATP assay IC50 [mol/l] (median). The method in brief: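 GST-tagged full-length human CSNK1A1 from baculovirus-infected insect cells (typically about 0.4 ng/μL), pre-incubated with compound 15 min at 22 °C. Reaction with biotinylated peptide biotin-Ahx-KRRRAL-pS-VASLPGL at 1 mM ATP. ADP formed read by ADP-Glo luminescence.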
T1 sequence (P48729 whole entry): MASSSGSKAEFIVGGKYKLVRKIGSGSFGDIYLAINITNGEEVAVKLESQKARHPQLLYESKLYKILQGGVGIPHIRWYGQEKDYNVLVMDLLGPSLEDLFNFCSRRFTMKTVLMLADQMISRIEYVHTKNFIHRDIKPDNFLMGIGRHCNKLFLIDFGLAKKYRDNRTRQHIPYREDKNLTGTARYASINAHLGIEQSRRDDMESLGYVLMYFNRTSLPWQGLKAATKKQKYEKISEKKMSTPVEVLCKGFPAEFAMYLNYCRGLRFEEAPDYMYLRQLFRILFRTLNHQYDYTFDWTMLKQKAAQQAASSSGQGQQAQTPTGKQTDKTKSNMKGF

For assay [2], the target named is wild-type Epidermal Growth Factor Receptor (EGFR) (Homo sapiens (Human), UniProt P00533). Put plainly: WT-EGFR Kinase Assay (TR-FRET, 2 mM ATP). To be noted: read-out: EGFR Wildtyp- 2 mM ATP IC50 [mol/l] (median). For orientation: TR-FRET usually uses a lanthanide donor and a delayed reading to cut background.
Chain of wild-type Epidermal Growth Factor Receptor (EGFR) (P00533 669-1210): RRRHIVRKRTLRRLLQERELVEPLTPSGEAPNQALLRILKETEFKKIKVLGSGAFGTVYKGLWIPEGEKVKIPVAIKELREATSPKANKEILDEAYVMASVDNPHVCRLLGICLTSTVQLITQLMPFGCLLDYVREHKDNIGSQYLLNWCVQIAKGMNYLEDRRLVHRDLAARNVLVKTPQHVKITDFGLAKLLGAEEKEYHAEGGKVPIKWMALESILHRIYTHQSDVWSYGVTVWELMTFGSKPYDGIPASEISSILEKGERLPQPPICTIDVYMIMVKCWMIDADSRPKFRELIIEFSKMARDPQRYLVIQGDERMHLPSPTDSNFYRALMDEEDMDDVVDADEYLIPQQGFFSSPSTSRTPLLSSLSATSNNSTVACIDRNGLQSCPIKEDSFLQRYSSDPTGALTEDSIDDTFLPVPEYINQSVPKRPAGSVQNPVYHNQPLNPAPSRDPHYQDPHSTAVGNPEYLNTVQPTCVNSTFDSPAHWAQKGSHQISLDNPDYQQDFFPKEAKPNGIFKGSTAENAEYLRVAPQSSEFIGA
For assay [3], the target named is T1, human CSNK1A1. Put plainly: CSNK1A1 Assay 1 (ADP-Glo, 1 μM ATP). To be noted: substrate Btn-Ahx-SGSEGDSESGEEEG, read-out: CSNK1A1 Assay 1 IC50 [mol/l] (median). The method, then: CSNK1A1-inhibitory activity of compounds of the present invention in presence of 1 μM adenosine-tri-phosphate (ATP) was quantified employing the CSNK1A1 assay as described in the following paragraphs. In essence, the enzyme activity is measured by quantification of the adenosine-di-phosphate (ADP), which is generated as a co-product of the enzyme reaction, via the “ADP-Glo™ Kinase Assay” kit from the company Promega. This detection system works as follows: In a first step the ATP not consumed in the kinase reaction is quantitatively converted to cAMP employing an adenylate cyclase (“ADP-Glo-reagent”), then the adenylate cyclase is stopped and the ADP generated in the kinase reaction converted to ATP which generates in a luciferase-based reaction a glow-luminescence signal (“Kinase Detection Reagent”). Recombinant fusion protein of N-terminal Glutathion-S-Transferase (GST) and full-length human CSNK1A1, expressed by baculovirus infected insect cells and purified via Glutathion affinity chromatography, was purchased from Life Technologies (product no. PV4174) and used as enzyme. As substrate for the kinase reaction the biotinylated peptide Btn-Ahx-[…] (C-terminus in amide form) was used which can be purchased e.g. from the company Biosyntan (Berlin-Buch, Germany).
For the assay 50 nl of a 100 fold concentrated solution of the test compound in DMSO was pipetted into a white 1536-well microtiter plate (Greiner Bio-One, Frickenhausen, Germany), 2 μL of a solution of CSNK1A1 in aqueous assay buffer [50 mM HEPES pH 7.5, 10% (v/v) glycerol, 10 mM MgCl2, 50 mM NaCl, 1 mM dithiothreitol, 0.01% (w/v) bovine serum albumin, 0.01% (v/v) Triton X-100] were added and the mixture was incubated for 15 min at 22° C. to allow pre-binding of the test compounds to the enzyme before the start of the kinase reaction. […] The concentration of CSNK1A1 was adjusted depending of the activity of the enzyme lot and was chosen appropriate to have the assay in the linear range, a typical concentration is 0.15 ng/μL. The reaction was stopped by the addition of 2.5 μL of “ADP-Glo-reagent” (1:1.5 fold diluted with water) and the resulting mixture was incubated at 22° C. for 1 h to convert the ATP not consumed in the kinase reaction completely […]. Subsequently 2.5 μL of the “kinase detection reagent” (1.2 fold more concentrated than recommended by the producer) were added, the resulting mixture was incubated at 22° C. for 1 h and then the luminescence measured with a suitable measurement instrument (e.g. Viewlux™ from Perkin-Elmer). The amount of emitted light was taken as a measure for the amount of ADP generated and thereby for the activity of the CSNK1A1.
On the technique in general: In ADP-Glo the light output rises with the ADP produced.

For the next assay, the target named is human CSNK1D (Homo sapiens (Human), UniProt P48730). Put plainly: CSNK1D Assay (ADP-Glo, 1 μM ATP). The settings on record: read-out: CSNK1D IC50 [mol/l] (median). The method in brief:
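GST-tagged full-length human CSNK1D from baculovirus-infected insect cells, typically ~0.5 ng/μL, with biotinylated peptide substrate and 1 μM ATP in HEPES pH 7.5 buffer. Compound is preincubated with enzyme 15 min at 22 °C. ADP formed is quantified by ADP-Glo luminescence.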

Chain of human CSNK1D (P48730 whole entry): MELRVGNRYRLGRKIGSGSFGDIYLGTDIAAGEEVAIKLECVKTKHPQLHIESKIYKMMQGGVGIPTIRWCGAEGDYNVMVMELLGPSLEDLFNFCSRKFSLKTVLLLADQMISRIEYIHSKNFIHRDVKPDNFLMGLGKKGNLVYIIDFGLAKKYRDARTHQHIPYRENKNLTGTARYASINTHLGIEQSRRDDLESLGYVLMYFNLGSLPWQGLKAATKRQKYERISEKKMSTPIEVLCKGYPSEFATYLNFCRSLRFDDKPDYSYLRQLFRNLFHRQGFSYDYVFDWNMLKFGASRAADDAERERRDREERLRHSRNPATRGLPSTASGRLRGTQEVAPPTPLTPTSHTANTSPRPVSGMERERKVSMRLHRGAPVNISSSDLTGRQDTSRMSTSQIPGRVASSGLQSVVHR

As to `CN1CCc2[nH]c(-c3ccnc(NC(=O)Cc4ccccc4)c3)c(Nc3ccccc3)c2C1=O` [Example 2, N-[4-(3-anilino-5-methyl-4-oxo-4,5,6,7-tetrahydro-1H-pyrrolo[3,2-c]pyridin-2-yl)pyridin-2-yl]-2-phenylacetamide], the IC50 came to 114 nM on human CSNK1A1 [1], 1170 nM in assay [2], 3.95 nM on human CSNK1A1 [3] and 5.41 nM on human CSNK1D.

As for `Cc1cc(CC(=O)Nc2cc(-c3[nH]c4c(c3Nc3ccccc3)C(=O)N(C)CC4)ccn2)ccc1F` [Example 3, N-[4-(3-anilino-5-methyl-4-oxo-4,5,6,7-tetrahydro-1H-pyrrolo[3,2-c]pyridin-2-yl)pyridin-2-yl]-2-(4-fluoro-3-methylphenyl)acetamide], the IC50 on human CSNK1A1 [1] came out at 78.4 nM; in assay [2] it was 2130 nM; at human CSNK1A1 [3] it was 4.28 nM; on human CSNK1D it was 5.66 nM.

In the case of `CN1CCc2[nH]c(-c3ccnc(NC(=O)Cc4ccc(F)cc4)c3)c(Nc3ccccn3)c2C1=O` [Example 12, 2-(4-fluorophenyl)-N-(4-{5-methyl-4-oxo-3-[(pyridin-2-yl)amino]-4,5,6,7-tetrahydro-1H-pyrrolo[3,2-c]pyridin-2-yl}pyridin-2-yl)acetamide], the IC50 was 5.2 nM at human CSNK1A1 [1], > 20000 nM in assay [2], 2.32 nM on human CSNK1A1 [3] and 10.2 nM on human CSNK1D.
